Experimental data: US20240335429A1, “MOLECULAR GLUE AND SALL4 DEGRADER” (National University of Singapore, priority 2021, published 2024)

Key:
[1] = molecular target: T1, IKZF1 (Homo sapiens, UniProt Q13422); assay: Immunoblot of IKZF1 in SNU-398 HCC cells; assay type: cell-based; conditions: SNU-398 cells
T1 construct: with immunoblots in SNU-398 HCC cells; endogenous in cells; host or cells: SNU-398 HCC cells
Method: (§1) RIPA buffer containing freshly added protease inhibitors (2 mM PMSF) and protease inhibitor cocktail was used for cell lysis. The lysed cells were incubated for 10 min on ice and subsequently centrifuged at 4° C. for 10 min at 14,000 rpm. The protein concentrations of cell lysates were assessed using Bradford Assay as per manufacturer's instructions. The samples were denatured using 4× Sample buffer at 95° C. for 5 min. The samples were size resolved using polyacrylamide gel (8%) and Mini-PROTEAN Tetra Cell module. The size-resolved proteins were transferred onto PVDF via electroblotting using Mini Trans-Blot® module. The membrane was blocked using 5% BSA in TBST. The membrane was incubated with appropriate primary antibody (overnight) and secondary antibody (1 h). Immobilon Crescendo Western HRP substrate was used for signal development and images were acquired using darkroom development techniques.

[2] = system: c-myc; assay: Immunoblot of c-myc (SALL4 downstream target) in SNU-398 cells; assay type: cell-based, human; conditions: Homo sapiens; SNU-398 HCC cells, 24 h treatment; read-out: suppression of SALL4 downstream target c-myc, IC50
Method: as §1

[3] = molecular target: T2, SALL4B (Homo sapiens, UniProt Q9UJQ4); assay: Immunoblot of endogenous SALL4B in SNU-398 HCC cells; assay type: cell-based
T2 construct: endogenous in cells; host or cells: SNU-398 HCC cells
T2 sequence (Q9UJQ4 1-616 isoform Q9UJQ4-2): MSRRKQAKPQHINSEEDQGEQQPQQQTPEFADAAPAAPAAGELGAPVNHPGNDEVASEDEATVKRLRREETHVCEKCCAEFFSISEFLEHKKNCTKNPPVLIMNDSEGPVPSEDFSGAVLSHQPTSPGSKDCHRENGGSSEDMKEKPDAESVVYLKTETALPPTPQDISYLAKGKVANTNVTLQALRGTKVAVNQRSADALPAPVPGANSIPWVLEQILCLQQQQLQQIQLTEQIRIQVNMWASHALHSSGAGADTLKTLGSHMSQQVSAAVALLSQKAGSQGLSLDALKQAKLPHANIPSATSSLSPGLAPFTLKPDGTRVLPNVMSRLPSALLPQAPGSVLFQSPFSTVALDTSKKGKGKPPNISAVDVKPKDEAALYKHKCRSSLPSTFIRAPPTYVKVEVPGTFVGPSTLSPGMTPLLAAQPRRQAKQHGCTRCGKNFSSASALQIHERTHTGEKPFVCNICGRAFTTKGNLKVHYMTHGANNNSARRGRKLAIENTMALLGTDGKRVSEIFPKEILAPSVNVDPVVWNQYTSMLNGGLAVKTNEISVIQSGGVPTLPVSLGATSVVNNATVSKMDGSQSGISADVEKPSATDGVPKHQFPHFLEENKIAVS
Method: as §1
A head-to-head comparison between the newly discovered SALL4 degrader QE-18-WG07 and IMiDs (Pomalidomide and Thalidomide) was performed. To assess the differential isoform degradation and biological consequences induced by QE-18-WG07 and IMiDs in cancer cells, the inventors employed the newly developed SALL4 isoform-specific cellular luciferase reporter system in Example 1 (FIG. 1A), and human HCC cell lines (SNU-398 and SNU-182), and NSCLC cell line H661 that have a high SALL4 level endogenously. The inventors treated H1299 cells overexpressing SALL4B_Nluc and the HCC (SNU-398, SNU-182) and NSCLC cells (H661) with increasing concentrations of QE-18-WG07 and IMiDs, and assayed the SALL4B_Nluc, as well as the endogenous SALL4A and B levels by immunoblots described in Example 4.
26S proteasome complex and neddylation was inhibited by cotreating MG132 at 1 and 3 μM and MLN4924 at 10 and 15 μM for 18 h, 20 h, 24 h or 48 h with desired concentrations of QE-18-WG07 in SNU-398, H661 and SNU-182 cells. After 18 h or 24 h of treatment, cells were then lysed and subjected to further protein extraction and immunoblotting by following the protocol in Example 4. For caspase glo assay, 20 h of cotreatment was performed by following the protocol in Example 5. For viability assay, 48 h of cotreatment was carried out by following the protocol in Example 5.
For lentiviral transduction, SNU-398 cells were spun with lentiviral particles containing the aforementioned vectors in RPMI (plus 10% FBS, 8 μg/mL polybrene) at 800 g for 60 minutes at room temperature. 96 h post-infection, cells were seeded in 6-well or 384-well plates and incubated overnight at 37° C., 5% CO2. Cells were then treated with DMSO or QE-18-WG07 at desired concentrations (0.5% final DMSO) for 18 h and 24 h. Immunoblot analysis was subsequently performed with the indicated antibodies by following the protocol in Example 4. […]

[4] = molecular target: T3, SALL4B-Nluc in H1299 cells (Homo sapiens, UniProt Q96SW2+Q9UJQ4); assay: Dual-luciferase SALL4B reporter cellular assay (main screen), Nluc/Fluc ratio; assay type: cell-based
T3 construct: expressed in transfected cells
T3 sequence (Q96SW2 whole entry, one chain of several): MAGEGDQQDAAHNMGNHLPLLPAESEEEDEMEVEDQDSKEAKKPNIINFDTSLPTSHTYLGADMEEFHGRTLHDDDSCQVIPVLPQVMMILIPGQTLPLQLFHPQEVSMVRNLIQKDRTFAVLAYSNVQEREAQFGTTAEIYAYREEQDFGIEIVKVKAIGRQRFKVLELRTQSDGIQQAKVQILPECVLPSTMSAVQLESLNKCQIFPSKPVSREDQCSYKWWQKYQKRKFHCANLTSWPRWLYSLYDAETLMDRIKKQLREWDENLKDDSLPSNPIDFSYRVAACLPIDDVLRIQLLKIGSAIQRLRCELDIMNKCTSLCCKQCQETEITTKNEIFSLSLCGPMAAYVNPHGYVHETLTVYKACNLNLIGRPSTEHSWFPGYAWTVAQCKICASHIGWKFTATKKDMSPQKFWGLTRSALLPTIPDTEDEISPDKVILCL
T3 sequence (Q16531 whole entry partner, one chain of several): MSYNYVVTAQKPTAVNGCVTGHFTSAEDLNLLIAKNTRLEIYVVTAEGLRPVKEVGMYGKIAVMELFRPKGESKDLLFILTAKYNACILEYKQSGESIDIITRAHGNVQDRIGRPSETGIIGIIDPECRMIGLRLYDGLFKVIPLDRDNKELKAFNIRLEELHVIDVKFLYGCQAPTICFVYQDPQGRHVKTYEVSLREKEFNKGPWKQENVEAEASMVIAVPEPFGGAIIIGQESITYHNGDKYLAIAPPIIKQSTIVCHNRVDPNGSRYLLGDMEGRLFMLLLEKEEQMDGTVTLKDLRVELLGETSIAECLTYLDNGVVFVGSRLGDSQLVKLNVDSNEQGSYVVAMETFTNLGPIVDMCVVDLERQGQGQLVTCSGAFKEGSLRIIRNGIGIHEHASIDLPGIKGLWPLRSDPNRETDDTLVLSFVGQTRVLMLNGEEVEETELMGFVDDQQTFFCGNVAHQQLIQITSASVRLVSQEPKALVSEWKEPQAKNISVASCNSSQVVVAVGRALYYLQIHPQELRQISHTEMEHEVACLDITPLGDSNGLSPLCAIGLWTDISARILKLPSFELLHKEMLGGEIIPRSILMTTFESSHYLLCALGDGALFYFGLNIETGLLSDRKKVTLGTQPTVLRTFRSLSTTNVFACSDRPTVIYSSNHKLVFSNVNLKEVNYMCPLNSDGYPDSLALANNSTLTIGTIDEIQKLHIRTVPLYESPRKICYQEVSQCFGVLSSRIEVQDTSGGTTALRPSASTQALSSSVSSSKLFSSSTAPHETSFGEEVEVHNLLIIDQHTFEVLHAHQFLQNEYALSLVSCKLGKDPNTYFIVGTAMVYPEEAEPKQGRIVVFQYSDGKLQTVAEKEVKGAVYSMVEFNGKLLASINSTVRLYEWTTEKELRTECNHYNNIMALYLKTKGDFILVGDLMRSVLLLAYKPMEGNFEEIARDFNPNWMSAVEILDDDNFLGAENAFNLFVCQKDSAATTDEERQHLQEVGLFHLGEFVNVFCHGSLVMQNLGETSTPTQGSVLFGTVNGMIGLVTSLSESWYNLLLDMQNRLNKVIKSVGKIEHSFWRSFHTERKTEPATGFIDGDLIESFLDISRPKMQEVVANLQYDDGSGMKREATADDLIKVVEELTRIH
From the text: SALL4A or SALL4B was cloned into the dual-luciferase plasmid (pLL3.7-EF1a-IRES-Gateway-nluc-2xHA-IRES2-fluc-hCL1-P2A-Puro from Prof. William G. Kaelin group) to create a stable cell line (H1299, SALL4 negative) that ectopically express the SALL4A or B-NanoLuc fusion protein. SALL4A or B fused to nanoluciferase (Nluc) was expressed in a multicistronic mRNA with control firefly luciferase (Fluc). The measurement of Nluc/Fluc ratio enabled the determination of SALL4 fusion protein degradation relative to the internal Fluc control, independent of effects on transcription (FIG. 1A-B).
The assay was performed as described in Example 1 except in a 1,536-well plate which allows HTS of thermal shift hits from the primary screen, searching for SALL4 small molecule binders that can degrade the oncogenic SALL4B isoform. H1299 cells that stably express SALL4A/B_Nluc_Fluc were seeded in a 1,536-well clear bottom white plate (Corning) at 2,000 cells per well in RPMI medium (6 μL) and grown overnight (16 h) at 37° C., 5% CO2. Cells were treated with 8 μM of compounds for 6 h. Nano-Glo® Dual-Luciferase® Reporter Assay System and Pherastar plate reader were used for measuring the luciferase signal, following the manufacturer's instruction. For data analysis, the Nanoluc luminescence is normalized to firefly luciferase reading and then compared to the DMSO control. The screen was performed in triplicates.
The inventors treated H1299 cells overexpressing SALL4B_Nluc and the HCC (SNU-398, SNU-182) and NSCLC cells (H661) with increasing concentrations of QE-18-WG07 and IMiDs, and assayed the SALL4B_Nluc, as well as the endogenous SALL4A and B levels by immunoblots described in Example 4.

T1 sequence (Q13422 whole entry): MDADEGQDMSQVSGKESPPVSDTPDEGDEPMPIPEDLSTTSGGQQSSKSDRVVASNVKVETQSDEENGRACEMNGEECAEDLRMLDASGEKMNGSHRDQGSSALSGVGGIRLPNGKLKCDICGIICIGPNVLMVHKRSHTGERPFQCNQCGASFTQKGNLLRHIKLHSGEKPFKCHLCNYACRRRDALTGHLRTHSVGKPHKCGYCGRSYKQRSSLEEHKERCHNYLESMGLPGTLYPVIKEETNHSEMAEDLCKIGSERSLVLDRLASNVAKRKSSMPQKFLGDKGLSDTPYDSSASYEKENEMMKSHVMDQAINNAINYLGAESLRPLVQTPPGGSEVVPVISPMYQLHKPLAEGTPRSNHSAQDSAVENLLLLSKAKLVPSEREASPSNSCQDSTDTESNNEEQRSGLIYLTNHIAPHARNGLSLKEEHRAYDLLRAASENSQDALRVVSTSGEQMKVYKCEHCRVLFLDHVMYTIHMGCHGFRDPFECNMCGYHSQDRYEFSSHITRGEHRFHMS

For `COc1ccccc1NC(=O)Nc1ccc([N+](=O)[O-])cc1O` [QE-18-WG07], the “degradation of IKZF1” value [1] was “did not degrade”, the IC50 [2] was about 5.12 µM and the “degradation of endogenous SALL4B after CRBN knockdown by shRNA” value ([3]; CRBN-KD SNU-398 cells, 18 h) was “prevented”. The “SALL4B degradation under MG132 or MLN4924 cotreatment” value ([3]; SNU-398, SNU-182 and H661 cells) was “chemically rescued”, the Dmax ([3]; SNU-398 HCC cells, 24 h of treatment, immunoblot quantification) was 87% and the DC50 ([3]; SNU-398 cells, 24 h, immunoblot quantification) was about 0.64 µM. For the same molecule, the main screen readout ([4]; 8 μM, 6 h, H1299 cells overexpressing SALL4B fused with Nluc) was −31, the Dmax ([4]; NCI-H1299, SALL4B dual-luciferase reporter assay, 9 hours of treatment, read-out: maximum degradation (Dmax) of SALL4B_Nluc) was 75% and the “reduction in the amount of SALL4B protein” value ([4]; after 6 h of incubation in H1299 cells overexpressing SALL4B fused with Nluc) was 31%. The “SALL4B_Luc Reporter Assay % SALL4B Downregulation” value ([4]; normalized to DMSO control, mean ± SD (n = 3), 8 μM, 6 h treatment, H1299 cells) was 29.8 ± 1.8%.
